Laboratory results taken from patent US11299472B2, “Fumarate salt of (R)-3-(1-(2,3-dichloro-4-(pyrazin-2-yl)phenyl)-2,2,2- trifluoroethyl)-1-methyl-1-(1-methylpiperidin-4-yl) urea, methods of preparation, and uses thereof” (Helsinn Healthcare SA, priority 2017, dated 2022).

What was measured:
[1] = Rat pharmacokinetic study, single oral HM04 fumarate salt 3, 10, 30 mg/kg (Example 10); type: in vivo, male Sprague Dawley rats
Experimental: (§1) The pharmacokinetics of HM04 in plasma after single oral administration of HM04 fumarate salt to 6-week old male Sprague Dawley rats and male Beagle dogs (1-5 years of age) was investigated. Test formulations of 0.6 mg/mL, 2 mg/mL, and 6 mg/mL HM04 fumarate salt (based on weight of the free base) were prepared in 5% glucose solution. Doses of 3, 10, and 30 mg/kg HM04 fumarate salt (based on weight of the free base) were administered by gastric gavage as a 5 mL/kg dose volume of each of the three test formulations. Four animals were in each dose group. The formulation was administered to the dogs in fasting conditions with food provided three hours post-dosing.
A comparison of the plasma concentration of HM04 (ng/mL) in rats over time is provided in FIG. 19 and a summary of the pharmacokinetic analysis is provided in Table 5, below. […] The standard deviation associated with the mean oral bioavailability was calculated according to the formula: SDq=[^2√{square root over ((my^2·SDx^2+mx^2−SDy^2))}]/my^2 where q=mean bioavailability; mx=oral dose-normalized mean AUC, and my=IV dose-normalized mean AUC.
(§2) Plasma HM04 concentrations were measured by LC-MS/MS following protein precipitation in the 96-well plate format. At the time of analysis samples were thawed out at ambient temperature. Aliquots of 25 μL of rat or dog K3EDTA plasma were spiked with 300 μL of internal standard (25 ng/mL of HM04-d8 in acetonitrile). After gentle vortex mixing for 5 minutes and centrifugation at 2010 g for 15 minutes at 4° C., an aliquot of 100 μL of the organic phase was transferred into a fresh 96-well polypropylene plate, using a P3-Evolution robotic system (Perkin Elmer). Following dilution with 100 μL of […] ammonium formate pH 3.5, an aliquot of 10 μL was injected into the LC-MS/MS system.

[2] = Dog pharmacokinetic study, single oral HM04 fumarate salt 3, 10, 30 mg/kg (Example 10); type: in vivo, male Beagle dogs
Experimental: as §1
Oral absolute bioavailability at 3 mg/kg was calculated from the ratio of individual oral AUC∞ to the individual AUC∞ values determined following intravenous administration of 3 mg/kg HM04 fumarate salt (based on weight of the free base) to the same four male Beagle dogs.
Oral absolute bioavailability at 10 mg/kg was calculated from the ratio of individual oral AUC∞ to the individual AUC∞ values determined following intravenous administration of 10 mg/kg HM04 fumarate salt (based on weight of the free base) to the same four male Beagle dogs.
as §2

bioavailability ([1]; male, Sprague Dawley, plasma, oral doses of 3 and 10 mg/kg): 40 to 50% | detectable pre-dose concentrations of HM04 ([2]; 3 mg/kg oral, three of the four dogs, range): 5.15 to 8.31 ng/mL | detectable pre-dose concentration ([2]; oral 10 mg/kg, Dog 2): 8.60 ng/mL
SMILES: CN1CCC(N(C)C(=O)N[C@H](c2ccc(-c3cnccn3)c(Cl)c2Cl)C(F)(F)F)CC1 [HM04, (R)-3-(1-(2,3-dichloro-4-(pyrazin-2-yl)phenyl)-2,2,2-trifluoroethyl)-1-methyl-1-(1-methylpiperidin-4-yl)urea]
exposure to HM04 versus dose ([1]; oral 3, 10, 30 mg/kg): more than a proportional increase at 30 mg/kg
